{"source": "patent US8193315B2", "about": "(Sanford-Burnham Medical Research Institute, priority 2001, dated 2012)", "type_in_all_cases": "cell-based", "key": {"NR1/NR3A receptors": {"molecular_target": "T1, NR1/NR3A receptors (Rattus norvegicus, UniProt P35439+Q9R1M7)", "T1 construct": "Full-length cDNAs encoding NMDA receptor subunits were linearized and used as templates for synthesis of cRNA; expressed in transfected cells; host or cells: Xenopus laevis oocytes injected with cRNA", "T1 sequence (Q9R1M7 24-1115 isoform Q9R1M7-2 limits assumed, other chains not shown)": "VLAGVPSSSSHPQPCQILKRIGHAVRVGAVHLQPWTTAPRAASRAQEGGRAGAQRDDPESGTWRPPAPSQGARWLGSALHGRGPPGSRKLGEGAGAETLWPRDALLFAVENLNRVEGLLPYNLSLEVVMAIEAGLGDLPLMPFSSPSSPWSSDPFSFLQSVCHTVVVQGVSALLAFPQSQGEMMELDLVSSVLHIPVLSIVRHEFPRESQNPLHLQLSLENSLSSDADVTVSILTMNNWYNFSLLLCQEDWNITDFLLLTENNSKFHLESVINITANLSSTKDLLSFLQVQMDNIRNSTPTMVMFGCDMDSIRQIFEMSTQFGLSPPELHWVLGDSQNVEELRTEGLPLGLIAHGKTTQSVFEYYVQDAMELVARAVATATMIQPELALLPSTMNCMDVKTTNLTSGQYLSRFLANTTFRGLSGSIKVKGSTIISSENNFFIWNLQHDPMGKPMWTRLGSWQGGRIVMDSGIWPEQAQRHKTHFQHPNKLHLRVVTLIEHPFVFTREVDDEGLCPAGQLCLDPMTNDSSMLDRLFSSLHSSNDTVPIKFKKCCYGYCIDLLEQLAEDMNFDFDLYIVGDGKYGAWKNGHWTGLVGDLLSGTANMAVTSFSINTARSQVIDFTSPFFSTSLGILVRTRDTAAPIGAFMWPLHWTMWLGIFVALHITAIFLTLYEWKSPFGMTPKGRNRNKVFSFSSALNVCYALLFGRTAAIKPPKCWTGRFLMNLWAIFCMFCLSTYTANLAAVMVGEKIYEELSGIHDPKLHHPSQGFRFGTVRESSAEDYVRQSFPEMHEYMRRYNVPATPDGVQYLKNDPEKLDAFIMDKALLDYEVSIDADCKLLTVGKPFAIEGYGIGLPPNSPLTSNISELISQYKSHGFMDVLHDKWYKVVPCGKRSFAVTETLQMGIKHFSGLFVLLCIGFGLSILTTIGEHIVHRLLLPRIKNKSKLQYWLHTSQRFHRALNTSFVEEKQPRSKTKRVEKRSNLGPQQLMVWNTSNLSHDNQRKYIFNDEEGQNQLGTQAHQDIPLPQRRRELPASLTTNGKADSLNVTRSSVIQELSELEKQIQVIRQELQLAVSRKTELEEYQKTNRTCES", "experiment": "Glycine-evoked whole-oocyte currents of NR1/NR3A receptors, two-electrode voltage recordings in Xenopus oocytes"}, "NR1/NR3B receptors": {"molecular_target": "T2, NR1/NR3B receptors (Rattus norvegicus, UniProt P35439+Q8VHN2)", "T2 construct": "Full-length cDNAs encoding NMDA receptor subunits were linearized and used as templates for synthesis of cRNA; expressed in transfected cells; host or cells: Xenopus laevis oocytes injected with cRNA", "T2 sequence (Q8VHN2 25-1002, other chains not shown)": "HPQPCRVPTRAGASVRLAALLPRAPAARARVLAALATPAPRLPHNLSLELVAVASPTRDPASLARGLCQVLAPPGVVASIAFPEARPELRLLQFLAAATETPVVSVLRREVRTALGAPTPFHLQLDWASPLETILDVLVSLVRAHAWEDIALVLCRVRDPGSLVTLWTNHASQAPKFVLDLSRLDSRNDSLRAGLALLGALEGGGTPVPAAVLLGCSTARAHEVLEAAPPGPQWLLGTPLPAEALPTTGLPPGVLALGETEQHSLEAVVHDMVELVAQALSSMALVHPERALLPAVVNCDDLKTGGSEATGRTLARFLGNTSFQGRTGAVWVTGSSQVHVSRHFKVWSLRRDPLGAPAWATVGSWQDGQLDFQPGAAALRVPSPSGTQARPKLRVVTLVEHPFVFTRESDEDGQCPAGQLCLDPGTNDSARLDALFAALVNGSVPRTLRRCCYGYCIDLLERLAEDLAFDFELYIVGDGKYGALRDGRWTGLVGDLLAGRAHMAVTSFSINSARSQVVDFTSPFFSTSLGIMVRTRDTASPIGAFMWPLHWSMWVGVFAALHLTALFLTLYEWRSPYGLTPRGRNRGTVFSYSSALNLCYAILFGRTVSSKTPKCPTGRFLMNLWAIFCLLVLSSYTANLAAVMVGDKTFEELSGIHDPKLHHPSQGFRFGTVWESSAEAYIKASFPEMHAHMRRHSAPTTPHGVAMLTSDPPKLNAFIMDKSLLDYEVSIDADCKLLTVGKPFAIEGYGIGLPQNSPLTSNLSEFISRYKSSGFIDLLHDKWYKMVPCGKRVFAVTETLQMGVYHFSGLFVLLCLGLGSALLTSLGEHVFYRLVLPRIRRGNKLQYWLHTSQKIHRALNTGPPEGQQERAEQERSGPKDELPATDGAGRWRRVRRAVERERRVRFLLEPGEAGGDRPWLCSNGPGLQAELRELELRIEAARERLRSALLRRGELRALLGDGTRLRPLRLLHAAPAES", "experiment": "Glycine-evoked whole-oocyte currents of NR1/NR3B receptors, dual-electrode voltage clamp in Xenopus oocytes", "text": "NR3B cRNA for oocyte expression was produced as follows. The full-length NR3B cDNA was constructed in the pCMV6-XL4 vector (OriGene Technologies, Inc., Rockville, Md.), which contains a T7 promoter upstream of the cDNA insert. […] The truncated cRNA could potentially encode a dominant negative form of NR3B. Therefore, a new vector was constructed to facilitate production of exclusively full-length NR3B cRNA. Construction of this vector proceeded as follows. NR1 cDNA was excised from the pGEM-HE/NR1 vector (a gift from S. F. Heinemann) by digestion with EcoRI and the two ends of the truncated pGEM-HE vector were re-ligated. The truncated pGEM-HE vector retained the 5′ and 3′ UTRs of the X. laevis β-globin gene for high level protein expression in frog oocytes. The SfoI-KpnI fragment of truncated pGEM-HE, which contains the T7 promoter, was replaced with the PvuII-KpnI fragment of pBluescript II KS, which contains the T3 promoter, to generate pJC32. The abbreviated multiple cloning site of pJC32 was then replaced with the multiple cloning site from pcDNA3.1(+) (Invitrogen, Carlsbad, Calif.) by ligating the 102 bp PmeI fragment of pcDNA3.1(+) into the 3 kb SmaI-EcoRV fragment of pJC32 to generate pJC34. […] The resulting vector, pJC39, contains three rare restriction sites downstream of the multiple cloning site to facilitate linearization prior to in vitro transcription using T3 RNA polymerase.\nThe full-length NR3B (B4 form) cDNA was then excised from pCMV6-XL4 by digestion with EcoRI and XbaI, and the 3.2 kb fragment was ligated into EcoRI/XbaI-digested pJC39. The resulting vector, pJC42, was linearized with PmeI, and in vitro transcription was performed using the mMessage mMachine T3 kit (Ambion, Inc., Austin, Tex.) according to the manufacturer's instructions.\nMicropipettes were filled with 3 M KCl."}, "cerebrocortical neurons": {"test_system": "cerebrocortical neurons", "experiment": "Single-channel recording from outside-out patches of cerebrocortical neurons"}, "[1]": {"test_system": "cultured cerebrocortical neurons"}}, "note": "“Also recorded” adds a separate entry of the source. Like-named read-outs stand apart in the source and are kept apart here.", "data": [{"smiles": "C[C@]12N[C@H](Cc3ccccc31)c1ccccc12", "note": "[MK-801]", "values": [{"measurement": "sensitivity of NR1/NR3A receptors to open-channel blocker compared to NR1/NR2A receptors", "setting": "NR1/NR3A receptors", "value": "drastically less sensitive"}, {"measurement": "sensitivity of NR1/NR3B receptors to open-channel blocker compared to NR1/NR2A receptors", "setting": "NR1/NR3B receptors", "value": "drastically less sensitive"}]}, {"smiles": "[Mg+2]", "note": "[Mg^2+]", "values": [{"measurement": "sensitivity of NR1/NR3A receptors to open-channel blocker compared to NR1/NR2A receptors", "setting": "NR1/NR3A receptors", "value": "drastically less sensitive"}, {"measurement": "sensitivity of NR1/NR3B receptors to open-channel blocker compared to NR1/NR2A receptors", "setting": "NR1/NR3B receptors", "value": "drastically less sensitive"}, {"measurement": "effect on channel activity (NPo) evoked by 2.5 μM glycine", "setting": "cerebrocortical neurons", "value": "little effect"}, {"measurement": "effect on glycine-activated single channels of cerebrocortical neurons", "setting": "cerebrocortical neurons", "value": "little effect"}]}, {"smiles": "CN[C@H](CC(=O)O)C(=O)O", "note": "[NMDA, N-methyl-D-aspartate]", "values": [{"measurement": "effect on glycine-evoked currents of NR1/NR3A receptors", "setting": "NR1/NR3A receptors", "value": "did not potentiate glycine-evoked currents"}, {"measurement": "activation of NR1/NR3B receptors by the substance alone (without co-agonist)", "setting": "NR1/NR3B receptors", "value": "did not evoke glycine-independent responses; also recorded: did not evoke a glycine-independent response"}, {"measurement": "effect on glycine-evoked currents of NR1/NR3B receptors", "setting": "NR1/NR3B receptors", "value": "little or no effect; also recorded: did not potentiate glycine-evoked currents"}]}, {"smiles": "N[C@H](CO)C(=O)O", "note": "[D-serine]", "values": [{"measurement": "activation of NR1/NR3A receptors by the substance alone", "setting": "NR1/NR3A receptors; Xenopus oocytes", "value": "did not independently manifest any agonist activity"}, {"measurement": "effect on glycine-evoked currents of NR1/NR3A receptors", "setting": "NR1/NR3A receptors; Xenopus oocytes", "value": "even more potent antagonist"}, {"measurement": "activation of NR1/NR3B receptors by the substance alone (without co-agonist)", "setting": "NR1/NR3B receptors; Xenopus oocytes", "value": "evokes small NR1/NR3B currents alone; also recorded: activated NR1/NR3B receptors in the absence of glycine; also recorded: evoked small currents alone"}, {"measurement": "effect on glycine-evoked currents of NR1/NR3B receptors", "setting": "NR1/NR3B receptors; Xenopus oocytes, glycine 10 μM, NMDA or L-glutamate 100 μM unless otherwise indicated", "value": "dose-dependently inhibits currents in the presence of glycine; also recorded: inhibited the glycine response"}, {"measurement": "effect on channel activity (NPo) evoked by 2.5 μM glycine", "setting": "cerebrocortical neurons", "value": "decreased"}, {"measurement": "effect on glycine-activated single channels of cerebrocortical neurons", "setting": "cerebrocortical neurons", "value": "inhibited"}, {"measurement": "effect on glycine-evoked bursting response of cultured neurons", "setting": "[1]", "value": "inhibited"}, {"measurement": "glycine-responsive cells in which glycine-triggered bursting was inhibited", "setting": "[1]", "value": "5 of 22"}]}, {"smiles": "N[C@H](CCCP(=O)(O)O)C(=O)O", "note": "[AP5, D-(−)-2-amino-5-phosphonopentanoate]", "values": [{"measurement": "effect on glycine-evoked currents of NR1/NR3A receptors at 10 μM", "setting": "NR1/NR3A receptors", "value": "little or no effect"}, {"measurement": "effect on glycine-evoked currents of NR1/NR3B receptors at 10 μM", "setting": "NR1/NR3B receptors", "value": "little or no effect"}]}, {"smiles": "NC1=N[C@H](O)[C@H]2[C@H]3O[C@]4(O)O[C@@H]([C@@H](O)[C@@]2(N1)[C@@H]4O)[C@]3(O)CO", "note": "[tetrodotoxin]", "values": [{"measurement": "effect on glycine-evoked bursting response of cultured neurons", "setting": "[1]", "value": "inhibited"}]}, {"smiles": "O=C(O)c1cc(=O)c2c(Cl)cc(Cl)cc2[nH]1", "note": "[5,7-DCKA, 5,7-dichlorokynurenate]", "values": [{"measurement": "effect on glycine-evoked currents of NR1/NR3B receptors", "setting": "NR1/NR3B receptors", "value": "blocks glycine activated currents; also recorded: virtually abolished"}]}, {"smiles": "N[C@@H](CCC(=O)O)C(=O)O", "note": "[L-glutamate]", "values": [{"measurement": "effect on glycine-evoked currents of NR1/NR3A receptors", "setting": "NR1/NR3A receptors", "value": "did not potentiate glycine-evoked currents"}, {"measurement": "activation of NR1/NR3B receptors by the substance alone (without co-agonist)", "setting": "NR1/NR3B receptors", "value": "did not evoke glycine-independent responses; also recorded: did not evoke a glycine-independent response"}, {"measurement": "effect on glycine-evoked currents of NR1/NR3B receptors", "setting": "NR1/NR3B receptors", "value": "little or no effect; also recorded: did not potentiate glycine-evoked currents"}]}, {"smiles": "NCC(=O)O", "note": "[glycine]", "values": [{"measurement": "recordings in which glycine triggered neuronal bursting", "setting": "[1]", "value": "22 of 26"}]}, {"smiles": "NC1(C(=O)O)CC1", "note": "[ACPC, 1-aminocyclopropanecarboxylic acid]", "values": [{"measurement": "effect on glycine-evoked currents of NR1/NR3B receptors", "setting": "NR1/NR3B receptors", "value": "inhibited"}]}]}
